Test results published in US20140121231A1, “PYRANOPYRIDONE INHIBITORS OF TANKYRASE” (Hoffmann-La Roche, Inc., priority 2012, published 2014).
Counter-ions that a name gives are not always drawn.

Legend:
Tankyrase 1 (TNKS1) = target: T1, Tankyrase 1 (TNKS1) (Homo sapiens, UniProt O95271); experiment: μHTS-TNKS-IWR2 TR-FRET Binding Assay (Example 71), TNKS1
T1 construct: His6-TNKS1, MW=28.2 KDa (construct: 1088-1327, 1266M)
Protocol: (§1) μHTS-TNKS-IWR2 TR-FRET Binding Assay (10 μL/well in BD1536-well plate, a single point)
(§2) Assay buffer 1a (AB1a) for TNKS dilution: 50 mM Tris, pH 7.4, 100 mM sodium chloride solution, 1 mM magnesium chloride solution, 1 mM DL-dithiothreitol solution, 0.2 mg/mL bovine serum albumin solution, 0.025% NP-40. Assay buffer 1b (AB 1b) for Biotin-IWR2 dilution: 50 mM Tris, pH 7.4, 100 mM sodium chloride solution, 1 mM magnesium chloride solution, 1 mM DL-dithiothreitol solution, 0.2 mg/mL bovine serum albumin solution, 0.05% NP-40 Assay buffer 1c (AB 1c) for compound dilution: 50 mM Tris, pH 7.4, 100 mM sodium chloride solution, 1 mM magnesium chloride solution, 1 mM DL-dithiothreitol solution, 0.2 mg/mL bovine serum albumin solution Assay buffer 2 (AB2) for Eu/APC: 50 mM Tris, pH 7.4, 100 mM sodium chloride solution, 1 mM magnesium chloride solution, 0.2 mg/mL bovine serum albumin solution
(§3) Transfer 3 μL/well of above solution (solution 1,2,3) to an empty assay plate (BD1536-well plate) as follows: TOTAL and cpd wells: Solution 1 (Biotin-IWR2): BLANK wells: Solution 2 (No Biotin-IWR2): POSITIVE CONTROL wells: Solution 3 (Biotin-IWR2XAV939) Transfer 3 μL/well of the above diluted compound solutions or compound dilution buffer to the above assay plate. Add 2 μL/well of 300 nM TNKS stock solution (4) to every well in the above assay plate. Centrifuge the assay plate at 2100 rpm for 2 min. Incubate the assay plate at 26° C. for 30 minutes. Add 2 μL/well 3.5 nMEu/50 nM APC solution (5) to every well in the above assay plate. Centrifuge the assay plate at 2100 rpm for 2 min. Incubate the assay plate at 26° C. for 60 min.

tankyrase 2 (His6-TNKS2) = target: T2, tankyrase 2 (His6-TNKS2) (Homo sapiens, UniProt Q9H2K2); experiment: μHTS-TNKS-IWR2 TR-FRET Binding Assay (Example 71), TNKS2; details: footnote 1: Tankyrase 1 and 2 inhibition assay in Example 71 (TR-FRET)
T2 construct: His6-tankyrase 2 (construct: 934-1166) (His6-TNKS2)
Protocol: as §1
Biotin-4-((1S,2R,6S,7R)-3,5-Dioxo-4-aza-tricyclo[5.2.1.0*2,6*]dec-8-en-4-yl)-N-(4-methyl-quinolin-8-yl)-benzamide (Biotin-IWR2): 10 mM Biotin-IWR2 stock in DMSO, stored at −20° C. Positive control: 10 mM 2-(4-Trifluoromethyl-phenyl)-3,5,7,8-tetrahydro-thiopyrano[4,3-d]pyrimidin-4-one (XAV939) in DMSO, stored at −20° C.
as §2, §3

[1] = target: T3, PARP1 (His6-PARP1, full length) (Homo sapiens, UniProt P09874); experiment: TR-FRET Binding Assay (Example 71), PARP1; details: TR-FRET assay of Example 71 with His6-PARP1
T3 construct: His6-PARP1 (full length) can be substituted for His6-TNKS 1
Protocol: as §1
Tankyrase 1 (TNKS1): 184.3 μM=5.2 mg/mL His6-TNKS1, MW=28.2 KDa (construct: 1088-1327, 1266M) in 20 mM Tris pH 8, 150 mM NaCl, 10% glycerol, and 0.5 mM TCEP. Alternatively, His6-tankyrase 2 (construct: 934-1166) (His6-TNKS2) or His6-PARP1 (full length) can be substituted for His6-TNKS 1.
as §2
Prepare Biotinylated IWR2 stock solution (3.33× stock) for TOTL and compound wells: 200 nM Biotin-IWR2 in 5% DMSO/AB1b buffer
Prepare BLANK well stock solution: 5% DMSO/AB1b buffer Prepare POSITIVE CONTROL well stock solution (3.33× stock): 200 nM XAV939 in 200 nM Biotin-IWR2/5% DMSO/AB1b buffer Prepare TNKS1 stock solution (5× stock): 300 nM TNKS in AB1a buffer. (Alternatively, use TNKS2 or PARP1 stock solutions.) Prepare Eu/APC stock solution (5× stock): 3.5 nM Eu-SA/50 nM APC-His6Ab in AB2 buffer.
Add 25 μL/well 1.5% DMSO/AB1c buffer in each compound well to the compound concentration at 74 μM in 8.8% DMSO/AB1c buffer or in the 2 μL DMSO CONTROL wells (BLANK, TOTAL and POSITIVE wells) in the compound plate. Transfer 3 μL/well of above solution (solution 1,2,3) to an empty assay plate (BD1536-well plate) as follows: TOTAL and cpd wells: Solution 1 (Biotin-IWR2): BLANK wells: Solution 2 (No Biotin-IWR2): POSITIVE CONTROL wells: Solution 3 (Biotin-IWR2XAV939) Transfer 3 μL/well of the above diluted compound solutions or compound dilution buffer to the above assay plate. Add 2 μL/well of 300 nM TNKS stock solution (4) to every well in the above assay plate. Centrifuge the assay plate at 2100 rpm for 2 min. Incubate the assay plate at 26° C. for 30 minutes. Add 2 μL/well 3.5 nMEu/50 nM APC solution (5) to every well in the above assay plate. Centrifuge the assay plate at 2100 rpm for 2 min. Incubate the assay plate at 26° C. for 60 min. Read the assay plate immediately at excitation wavelength of 330 nm and emission wavelength of […] in time resolved fluorescence mode.
. Representative compound data for the PARP1 assay is in TABLE 2 (below) Values are in μM.

T2 sequence (Q9H2K2 934-1166): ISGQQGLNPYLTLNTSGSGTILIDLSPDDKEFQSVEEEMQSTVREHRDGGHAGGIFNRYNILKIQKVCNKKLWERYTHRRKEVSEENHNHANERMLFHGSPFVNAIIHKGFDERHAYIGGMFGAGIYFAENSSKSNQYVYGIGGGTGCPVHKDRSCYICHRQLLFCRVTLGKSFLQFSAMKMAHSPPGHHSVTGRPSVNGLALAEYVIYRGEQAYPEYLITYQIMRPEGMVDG
T1 sequence (O95271 1088-1327): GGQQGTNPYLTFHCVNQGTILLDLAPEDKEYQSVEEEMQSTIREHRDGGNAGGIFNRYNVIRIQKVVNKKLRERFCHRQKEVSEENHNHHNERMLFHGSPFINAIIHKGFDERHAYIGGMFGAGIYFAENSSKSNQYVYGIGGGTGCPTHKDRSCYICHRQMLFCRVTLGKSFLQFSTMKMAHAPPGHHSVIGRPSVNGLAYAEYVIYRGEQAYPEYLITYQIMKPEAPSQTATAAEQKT
T3 sequence (P09874 whole entry, species assumed): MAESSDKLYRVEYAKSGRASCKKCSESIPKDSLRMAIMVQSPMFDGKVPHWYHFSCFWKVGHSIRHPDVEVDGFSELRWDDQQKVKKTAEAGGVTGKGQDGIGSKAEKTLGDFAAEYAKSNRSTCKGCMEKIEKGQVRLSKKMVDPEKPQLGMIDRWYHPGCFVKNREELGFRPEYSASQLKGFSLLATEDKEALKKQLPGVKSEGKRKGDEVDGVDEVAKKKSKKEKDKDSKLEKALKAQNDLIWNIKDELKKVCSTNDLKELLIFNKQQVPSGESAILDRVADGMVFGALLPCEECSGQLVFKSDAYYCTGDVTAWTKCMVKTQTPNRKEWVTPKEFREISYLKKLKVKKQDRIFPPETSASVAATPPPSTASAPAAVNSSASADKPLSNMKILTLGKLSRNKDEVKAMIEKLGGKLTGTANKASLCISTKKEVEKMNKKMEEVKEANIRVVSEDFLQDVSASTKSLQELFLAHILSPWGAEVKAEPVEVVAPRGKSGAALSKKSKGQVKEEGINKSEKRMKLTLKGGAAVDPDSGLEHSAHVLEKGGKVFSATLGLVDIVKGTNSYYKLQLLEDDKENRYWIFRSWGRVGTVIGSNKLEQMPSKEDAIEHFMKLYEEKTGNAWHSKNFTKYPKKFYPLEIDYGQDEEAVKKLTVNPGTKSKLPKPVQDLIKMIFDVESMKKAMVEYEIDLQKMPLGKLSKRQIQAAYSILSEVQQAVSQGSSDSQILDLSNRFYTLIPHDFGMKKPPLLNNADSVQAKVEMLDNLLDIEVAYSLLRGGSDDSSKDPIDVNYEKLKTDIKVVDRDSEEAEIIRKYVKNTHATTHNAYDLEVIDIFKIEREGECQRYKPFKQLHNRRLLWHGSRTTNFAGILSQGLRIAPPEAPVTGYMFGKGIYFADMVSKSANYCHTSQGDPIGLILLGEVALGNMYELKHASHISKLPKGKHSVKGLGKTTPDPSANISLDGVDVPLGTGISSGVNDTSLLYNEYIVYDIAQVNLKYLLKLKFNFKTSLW

| Structure (SMILES) | IC50 (Tankyrase 1 (TNKS1)) | IC50 (tankyrase 2 (His6-TNKS2)) | IC50 [1] |
| --- | --- | --- | --- |
| CC1(C2Cc3[nH]c(=O)c4ccccc4c3CO2)CCCCC1 (racemic) [Compound I-20, rac-2-(1-Methyl-cyclohexyl)-1,2,4,10-tetrahydro-3-oxa-10-aza-phenanthren-9-one] | 25.5 nM | 30.5 nM | 61.1 nM |
| CC(C)OC(=O)N1CCC(C2Cc3[nH]c(=O)c4ccccc4c3CO2)CC1 (racemic) [Compound I-32, rac-4-(9-Oxo-1,4,9,10-tetrahydro-2H-3-oxa-10-aza-phenanthren-2-yl)-piperidine-1-carboxylic acid isopropyl ester] | 30.8 nM | 40.5 nM | 81.8 nM |
| CC(=O)N1CCC(C2Cc3[nH]c(=O)c4ccccc4c3CO2)C1 (stereo not drawn) [Compound I-37, 2-(1-Acetyl-pyrrolidin-3-yl)-1,2,4,10-tetrahydro-3-oxa-10-aza-phenanthren-9-one] | 49.9 nM | 67.4 nM | 104 nM |
| CC1(C2Cc3[nH]c(=O)c4ccccc4c3CO2)COC1 (racemic) [Compound I-65, rac-2-(3-Methyl-oxetan-3-yl)-1,2,4,10-tetrahydro-3-oxa-10-aza-phenanthren-9-one] | 81.4 nM | 101 nM | 43 nM |
| O=c1[nH]c2c(c3ccccc13)COC(CCc1ccccc1)C2 (racemic) [Compound I-13, rac-2-Phenethyl-1,2,4,10-tetrahydro-3-oxa-10-aza-phenanthren-9-one] | 40.8 nM | 52.1 nM | 2670 nM |
| O=c1[nH]c2c(c3ccccc13)COC(C1CCNC1)C2 (stereo not drawn) [Compound I-36, 2-Pyrrolidin-3-yl-1,2,4,10-tetrahydro-3-oxa-10-aza-phenanthren-9-one, hydrochloride] | 168 nM | 246 nM | 27.7 nM |
| O=c1[nH]c2c(c3ccccc13)COCC2 [Compound I-3, 1,2,4,10-Tetrahydro-3-oxa-10-aza-phenanthren-9-one] | 421 nM | 636 nM | 281 nM |
| Cc1cccc2c(=O)[nH]c3c(c12)COC(C(C)(C)C)C3 (racemic) [Compound I-41, rac-2-tert-Butyl-5-methyl-1,2,4,10-tetrahydro-3-oxa-10-aza-phenanthren-9-one] | 21.2 nM | 26 nM | 46.9 nM |
| CC1(C(=O)N2CCC(C3Cc4[nH]c(=O)c5ccccc5c4CO3)CC2)CC1 (racemic) [Compound I-46, rac-2-[1-(1-Methyl-cyclopropanecarbonyl)-piperidin-4-yl]-1,2,4,10-tetrahydro-3-oxa-10-aza-phenanthren-9-one] | 33.2 nM | 44.3 nM | 87.1 nM |
| O=c1[nH]c2c(c3ccccc13)CO[C@@H](C1CCCC1)C2 (single isomer, unassigned) [Compound I-12] | 16 nM | 19.4 nM | 30.6 nM |

More lines, in order of falling IC50 (Tankyrase 1 (TNKS1)), values ahead:

| IC50 (Tankyrase 1 (TNKS1)) | IC50 (tankyrase 2 (His6-TNKS2)) | IC50 [1] | Structure (SMILES) |
| --- | --- | --- | --- |
| 93.7 nM | 231 nM | 80.1 nM | CC(C)C1Cc2[nH]c(=O)c3ccoc3c2CO1 (racemic) [Compound I-10, rac-7-Isopropyl-5,6,7,9-tetrahydro-1,8-dioxa-5-aza-cyclopenta[a]naphthalen-4-one] |
| 88.8 nM | 109 nM | > 50000 nM | O=c1[nH]c2c(c3ccccc13)COC(C1CCNCC1)C2 (racemic) [Compound I-22, rac-2-Piperidin-4-yl-1,2,4,10-tetrahydro-3-oxa-10-aza-phenanthren-9-one, trifluoroacetate] |
| 56.8 nM | 88.3 nM | > 50000 nM | CCC(C)C1Cc2[nH]c(=O)c3ccccc3c2CO1 (stereo not drawn) [Compound I-18, 2-sec-Butyl-1,2,4,10-tetrahydro-3-oxa-10-aza-phenanthren-9-one] |
| 42.2 nM | 65.6 nM | 67.3 nM | O=C(C1CC1)N1CCC(C2Cc3[nH]c(=O)c4ccccc4c3CO2)C1 (stereo not drawn) [Compound I-44, 2-(1-Cyclopropanecarbonyl-pyrrolidin-3-yl)-1,2,4,10-tetrahydro-3-oxa-10-aza-phenanthren-9-one] |
| 34.6 nM | 55.4 nM | 437 nM | CC(C)(C)C1Cc2[nH]c(=O)c3cccnc3c2CO1 (racemic) [Compound I-48, rac-2-tert-Butyl-1,2,4,10-tetrahydro-3-oxa-5,10-diaza-phenanthren-9-one] |
| 34.2 nM | 43 nM | 119 nM | O=c1[nH]c2c(c3ccccc13)COC(C1CCCC1)C2 (racemic) [Compound I-7, rac-2-Cyclopentyl-1,2,4,10-tetrahydro-3-oxa-10-aza-phenanthren-9-one] |
| 32.4 nM | 36.8 nM | 63.6 nM | O=c1[nH]c2c(c3ccccc13)COC(C1CCOCC1)C2 (racemic) [Compound I-47, rac-2-(Tetrahydro-pyran-4-yl)-1,2,4,10-tetrahydro-3-oxa-10-aza-phenanthren-9-one] |
| 32 nM | 36.7 nM | 44.1 nM | Cc1cccc2c(=O)[nH]c3c(c12)COC(C(C)(C)O)C3 (racemic) [Compound I-64, rac-2-(1-Hydroxy-1-methyl-ethyl)-5-methyl-1,2,4,10-tetrahydro-3-oxa-10-aza-phenanthren-9-one] |
| 28.3 nM | 26.9 nM | 52.6 nM | Cc1cccc2c(=O)[nH]c3c(c12)COC(C1CCN(C(=O)C2CC2)CC1)C3 (racemic) [Compound I-63, rac-2-(1-Cyclopropanecarbonyl-piperidin-4-yl)-5-methyl-1,2,4,10-tetrahydro-3-oxa-10-aza-phenanthren-9-one] |
| 26.5 nM | 23.7 nM | 38.1 nM | Cc1cccc2c(=O)[nH]c3c(c12)COC(C1CCN(C(=O)OC(C)(C)C)CC1)C3 (racemic) [Compound I-62, rac-4-(5-Methyl-9-oxo-1,4,9,10-tetrahydro-2H-3-oxa-10-aza-phenanthren-2-yl)-piperidine-1-carboxylic acid tert-butyl ester] |
| 24.1 nM | 17.9 nM | 79.7 nM | Cc1cccc2c(=O)[nH]c3c(c12)COC(C1CCOCC1)C3 (racemic) [Compound I-60, rac-5-Methyl-2-(tetrahydro-pyran-4-yl)-1,2,4,10-tetrahydro-3-oxa-10-aza-phenanthren-9-one] |
